According to PubChem BioAssay (NCI):
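Test compounds were applied to cells in 96-well plates for 48 hours at 5 doses. Abbreviation: GI50, concentration required for 50% inhibition of growth. TGI denotes the concentration required for complete inhibition of growth.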

Columns and labels:
Test in all cases: DTP human tumour cell line panel, 48 h
786-0 renal = tested on: 786-0 renal
A498 renal = tested on: A498 renal
A549 NSCLC = tested on: A549 NSCLC
ACHN renal = tested on: ACHN renal
BT-549 breast = tested on: BT-549 breast
CAKI-1 renal = tested on: CAKI-1 renal
CCRF-CEM leukemia = tested on: CCRF-CEM leukemia
COLO 205 colon = tested on: COLO 205 colon
DU-145 prostate = tested on: DU-145 prostate
EKVX NSCLC = tested on: EKVX NSCLC
HCC-2998 colon = tested on: HCC-2998 colon
HCT-116 colon = tested on: HCT-116 colon
HCT-15 colon = tested on: HCT-15 colon
HL-60(TB) leukemia = tested on: HL-60(TB) leukemia
HOP-62 NSCLC = tested on: HOP-62 NSCLC
HOP-92 NSCLC = tested on: HOP-92 NSCLC
HS 578T breast = tested on: HS 578T breast
HT29 colon = tested on: HT29 colon
IGROV1 ovarian = tested on: IGROV1 ovarian
K-562 leukemia = tested on: K-562 leukemia
KM12 colon = tested on: KM12 colon
LOX IMVI melanoma = tested on: LOX IMVI melanoma
M14 melanoma = tested on: M14 melanoma
MALME-3M melanoma = tested on: MALME-3M melanoma
MCF7 breast = tested on: MCF7 breast
MDA-MB-231 breast = tested on: MDA-MB-231 breast
MDA-MB-435 = tested on: MDA-MB-435
MOLT-4 leukemia = tested on: MOLT-4 leukemia
NCI-H226 lung = tested on: NCI-H226 lung
NCI-H23 lung = tested on: NCI-H23 lung
NCI-H460 lung = tested on: NCI-H460 lung
NCI-H522 lung = tested on: NCI-H522 lung
NCI/ADR-RES ovarian = tested on: NCI/ADR-RES ovarian
OVCAR-3 ovarian = tested on: OVCAR-3 ovarian
OVCAR-4 ovarian = tested on: OVCAR-4 ovarian
OVCAR-5 ovarian = tested on: OVCAR-5 ovarian
OVCAR-8 ovarian = tested on: OVCAR-8 ovarian
PC-3 prostate = tested on: PC-3 prostate
RPMI-8226 leukemia = tested on: RPMI-8226 leukemia
RXF 393 renal = tested on: RXF 393 renal
SF-268 CNS = tested on: SF-268 CNS
SF-295 CNS = tested on: SF-295 CNS
SF-539 CNS = tested on: SF-539 CNS
SK-MEL-2 melanoma = tested on: SK-MEL-2 melanoma
SK-MEL-28 melanoma = tested on: SK-MEL-28 melanoma
SK-MEL-5 melanoma = tested on: SK-MEL-5 melanoma
SK-OV-3 ovarian = tested on: SK-OV-3 ovarian
SN12C renal = tested on: SN12C renal
SNB-19 CNS = tested on: SNB-19 CNS
SR leukemia = tested on: SR leukemia
SW-620 colon = tested on: SW-620 colon
T-47D breast = tested on: T-47D breast
TK-10 renal = tested on: TK-10 renal
U251 CNS = tested on: U251 CNS
UACC-257 melanoma = tested on: UACC-257 melanoma
UACC-62 melanoma = tested on: UACC-62 melanoma
UO-31 renal = tested on: UO-31 renal

C/C(Cc1ccc(Cl)cc1)=C(\c1ccc(OCCN2CCCCCC2)cc1)c1ccc(OC(=O)c2ccccc2)cc1
GI50 (786-0 renal): 2.99 µM | TGI (786-0 renal): 9.44 µM | GI50 (A498 renal): 5.37 µM | TGI (A498 renal): 11.4 µM | GI50 (A549 NSCLC): 4.27 µM | TGI (A549 NSCLC): 12.6 µM | GI50 (ACHN renal): 5.77 µM | TGI (ACHN renal): 12.8 µM | GI50 (BT-549 breast): 6.27 µM | TGI (BT-549 breast): 12.7 µM | GI50 (CAKI-1 renal): 3.08 µM | TGI (CAKI-1 renal): 10.6 µM | GI50 (CCRF-CEM leukemia): 1.12 µM | TGI (CCRF-CEM leukemia): 3.79 µM | GI50 (COLO 205 colon): 1.71 µM | TGI (COLO 205 colon): 7.34 µM | GI50 (DU-145 prostate): 4.26 µM | TGI (DU-145 prostate): 11.1 µM | GI50 (EKVX NSCLC): 4.32 µM | TGI (EKVX NSCLC): 16.6 µM | GI50 (HCC-2998 colon): 1.38 µM | TGI (HCC-2998 colon): 3.53 µM | GI50 (HCT-116 colon): 1.34 µM | TGI (HCT-116 colon): 4.54 µM | GI50 (HCT-15 colon): 1.73 µM | TGI (HCT-15 colon): 7.53 µM | GI50 (HL-60(TB) leukemia): 1.62 µM | TGI (HL-60(TB) leukemia): 9.03 µM | GI50 (HOP-62 NSCLC): 5.98 µM | TGI (HOP-62 NSCLC): 12.3 µM | GI50 (HOP-92 NSCLC): 1.1 µM | TGI (HOP-92 NSCLC): 4.43 µM | GI50 (HS 578T breast): 4.29 µM | TGI (HS 578T breast): 14.4 µM | GI50 (HT29 colon): 1.64 µM | TGI (HT29 colon): 5.75 µM | GI50 (IGROV1 ovarian): 2.72 µM | TGI (IGROV1 ovarian): 10.3 µM | GI50 (K-562 leukemia): 1.55 µM | TGI (K-562 leukemia): 5.88 µM | GI50 (KM12 colon): 2.36 µM | TGI (KM12 colon): 9.23 µM | GI50 (LOX IMVI melanoma): 1.25 µM | TGI (LOX IMVI melanoma): 3.22 µM | GI50 (M14 melanoma): 1.01 µM | TGI (M14 melanoma): 2.36 µM | GI50 (MALME-3M melanoma): 1.76 µM | TGI (MALME-3M melanoma): 6.56 µM | GI50 (MCF7 breast): 0.358 µM | TGI (MCF7 breast): 6.92 µM | GI50 (MDA-MB-231 breast): 2.15 µM | TGI (MDA-MB-231 breast): 8.22 µM | GI50 (MDA-MB-435): 2.65 µM | TGI (MDA-MB-435): 9.27 µM | GI50 (MOLT-4 leukemia): 1.29 µM | TGI (MOLT-4 leukemia): 5.95 µM | GI50 (NCI-H226 lung): 8.45 µM | TGI (NCI-H226 lung): 17.5 µM | GI50 (NCI-H23 lung): 4.69 µM | TGI (NCI-H23 lung): 12.6 µM | GI50 (NCI-H460 lung): 1.61 µM | TGI (NCI-H460 lung): 5.23 µM | GI50 (NCI-H522 lung): 5.78 µM | TGI (NCI-H522 lung): 12.9 µM | GI50 (NCI/ADR-RES ovarian): 3.24 µM | TGI (NCI/ADR-RES ovarian): 11.3 µM | GI50 (OVCAR-3 ovarian): 3.78 µM | TGI (OVCAR-3 ovarian): 10.2 µM | GI50 (OVCAR-4 ovarian): 1.88 µM | TGI (OVCAR-4 ovarian): 8.51 µM | GI50 (OVCAR-5 ovarian): 4.64 µM | TGI (OVCAR-5 ovarian): 11.7 µM | GI50 (OVCAR-8 ovarian): 2.85 µM | TGI (OVCAR-8 ovarian): 9.35 µM | GI50 (PC-3 prostate): 1.7 µM | TGI (PC-3 prostate): 7.29 µM | GI50 (RPMI-8226 leukemia): 1.16 µM | TGI (RPMI-8226 leukemia): 3.28 µM | GI50 (RXF 393 renal): 2.49 µM | TGI (RXF 393 renal): 9.15 µM | GI50 (SF-268 CNS): 3.03 µM | TGI (SF-268 CNS): 10.7 µM | GI50 (SF-295 CNS): 2.27 µM | TGI (SF-295 CNS): 8.48 µM | GI50 (SF-539 CNS): 5.18 µM | TGI (SF-539 CNS): 11.4 µM | GI50 (SK-MEL-2 melanoma): 6.92 µM | TGI (SK-MEL-2 melanoma): 14 µM | GI50 (SK-MEL-28 melanoma): 1.15 µM | TGI (SK-MEL-28 melanoma): 2.94 µM | GI50 (SK-MEL-5 melanoma): 2.3 µM | TGI (SK-MEL-5 melanoma): 8.48 µM | GI50 (SK-OV-3 ovarian): 5.8 µM | TGI (SK-OV-3 ovarian): 13.2 µM | GI50 (SN12C renal): 3.19 µM | TGI (SN12C renal): 10.3 µM | GI50 (SNB-19 CNS): 5.29 µM | TGI (SNB-19 CNS): 14.6 µM | GI50 (SR leukemia): 1.25 µM | TGI (SR leukemia): 3.8 µM | GI50 (SW-620 colon): 2.52 µM | TGI (SW-620 colon): 9.7 µM | GI50 (T-47D breast): 1.43 µM | TGI (T-47D breast): 9.73 µM | GI50 (TK-10 renal): 6.03 µM | TGI (TK-10 renal): 13.3 µM | GI50 (U251 CNS): 2.61 µM | TGI (U251 CNS): 8.96 µM | GI50 (UACC-257 melanoma): 6.18 µM | TGI (UACC-257 melanoma): 13 µM | GI50 (UACC-62 melanoma): 1.3 µM | TGI (UACC-62 melanoma): 3.9 µM | GI50 (UO-31 renal): 1.39 µM | TGI (UO-31 renal): 7.3 µM
